Laboratory results reported in ChEMBL document CHEMBL6092180 (Eur J Med Chem, 2024).
Converted amounts (≈) assume the structure as drawn.

Columns and labels:
Assay type in all cases: functional
[1] = test system: Nakaseomyces glabratus; test: Antifungal activity against Candida glabrata assessed as inhibition of fungal growth by CLSI M27-A3 guidelines based method
[2] = test system: Candida albicans; test: Antifungal activity against fluconazole-resistant Candida albicans clinical isolate 632 assessed as inhibition of fungal growth by CLSI M27-A3 guidelines based method
[3] = test system: Candida albicans; test: Antifungal activity against Candida albicans GIM 2.194 assessed as inhibition of fungal growth by CLSI M27-A3 guidelines based method
[4] = test system: Candida albicans; test: Antifungal activity against fluconazole-resistant Candida albicans clinical isolate 901 assessed as inhibition of fungal growth by CLSI M27-A3 guidelines based method
[5] = test system: Aspergillus fumigatus; test: Antifungal activity against Aspergillus fumigatus cgmcc 3.7795 assessed as inhibition of fungal growth by CLSI M27-A3 guidelines based method
[6] = test system: Candida albicans; test: Antifungal activity against fluconazole-resistant Candida albicans clinical isolate 904 assessed as inhibition of fungal growth by CLSI M27-A3 guidelines based method
[7] = test system: Pichia kudriavzevii; test: Antifungal activity against Candida krusei GIM 2.1 assessed as inhibition of fungal growth by CLSI M27-A3 guidelines based method
[8] = test system: Candida albicans; test: Antifungal activity against fluconazole-resistant Candida albicans CaR assessed as inhibition of fungal growth by CLSI M27-A3 guidelines based method
[9] = test system: Candida albicans; test: Antifungal activity against fluconazole-resistant Candida albicans clinical isolate 103 assessed as inhibition of fungal growth by CLSI M27-A3 guidelines based method
[10] = test system: Candida albicans; test: Antifungal activity against fluconazole-resistant Candida albicans clinical isolate 311 assessed as inhibition of fungal growth by CLSI M27-A3 guidelines based method
[11] = test system: Candida albicans; test: Antifungal activity against fluconazole-resistant Candida albicans clinical isolate 100 assessed as inhibition of fungal growth by CLSI M27-A3 guidelines based method
[12] = test system: Candida albicans; test: Antifungal activity against fluconazole and iodiconazole resistant Candida albicans clinical isolate 17# assessed as inhibition of fungal growth by CLSI M27-A3 guidelines based method
[13] = test system: Candida albicans; test: Antifungal activity against Candida albicans SC5314 assessed as inhibition of fungal growth by CLSI M27-A3 guidelines based method
[14] = test system: Cryptococcus neoformans; test: Antifungal activity against Cryptococcus neoformans CGMCC 2.3161 assessed as inhibition of fungal growth by CLSI M27-A3 guidelines based method
[15] = test system: Candida tropicalis; test: Antifungal activity against Candida tropicalis GIM 2.183 assessed as inhibition of fungal growth by CLSI M27-A3 guidelines based method
[16] = test system: Candida parapsilosis; test: Antifungal activity against Candida parapsilosis GIM 2.190 assessed as inhibition of fungal growth by CLSI M27-A3 guidelines based method; conditions: Lodderomyces parapsilosis

Row | Compound | MIC80 [1] [mg/L] | MIC80 [2] [mg/L] | MIC80 [3] [mg/L] | MIC80 [4] [mg/L] | MIC80 [5] [mg/L] | MIC80 [6] [mg/L] | MIC80 [7] [mg/L] | MIC80 [8] [mg/L] | MIC80 [9] [mg/L] | MIC80 [10] [mg/L] | MIC80 [11] [mg/L] | MIC80 [12] [mg/L] | MIC80 [13] [mg/L] | MIC80 [14] [mg/L] | MIC80 [15] [mg/L] | MIC80 [16] [mg/L]
1 | Cc1ccc(C#Cc2ccc(CN(C)[C@H](C)[C@](O)(Cn3cncn3)c3ccc(F)cc3F)cc2)cc1 | 0.01 (≈ 0.0206 µM) | 4 (≈ 8.22 µM) | 0.013 (≈ 0.0267 µM) | 8 (≈ 16.4 µM) | 0.1 (≈ 0.206 µM) | 32 (≈ 65.8 µM) | 0.03 (≈ 0.0617 µM) | 0.25 (≈ 0.514 µM) | 16 (≈ 32.9 µM) | 32 (≈ 65.8 µM) | 8 (≈ 16.4 µM) | 0.5 (≈ 1.03 µM) | 0.025 (≈ 0.0514 µM) | 0.025 (≈ 0.0514 µM) | 0.006 (≈ 0.0123 µM) | 0.006 (≈ 0.0123 µM)
2 | C[C@@H](N(C)Cc1ccc(C#Cc2ccc([N+](=O)[O-])cc2)cc1)[C@](O)(Cn1cncn1)c1ccc(F)cc1F | 0.01 (≈ 0.0193 µM) | 4 (≈ 7.73 µM) | 0.006 (≈ 0.0116 µM) | 8 (≈ 15.5 µM) | 0.05 (≈ 0.0966 µM) | 32 (≈ 61.8 µM) | 0.01 (≈ 0.0193 µM) | 0.25 (≈ 0.483 µM) | 8 (≈ 15.5 µM) | 16 (≈ 30.9 µM) | 16 (≈ 30.9 µM) | 0.5 (≈ 0.966 µM) | 0.013 (≈ 0.0251 µM) | 0.013 (≈ 0.0251 µM) | 0.006 (≈ 0.0116 µM) | 0.006 (≈ 0.0116 µM)
3 | C[C@@H](N(C)Cc1ccc(C#Cc2ccc(C#N)cc2)cc1)[C@](O)(Cn1cncn1)c1ccc(F)cc1F | 0.01 (≈ 0.0201 µM) | 8 (≈ 16.1 µM) | 0.006 (≈ 0.0121 µM) | 8 (≈ 16.1 µM) | 0.05 (≈ 0.1 µM) | 32 (≈ 64.3 µM) | 0.01 (≈ 0.0201 µM) | 0.5 (≈ 1 µM) | 8 (≈ 16.1 µM) | 32 (≈ 64.3 µM) | 16 (≈ 32.2 µM) | 0.25 (≈ 0.502 µM) | 0.006 (≈ 0.0121 µM) | 0.006 (≈ 0.0121 µM) | 0.006 (≈ 0.0121 µM) | 0.006 (≈ 0.0121 µM)
4 | CN(Cc1ccc(C#Cc2cccc(Br)c2)cc1)CC(O)(Cn1cncn1)c1ccc(F)cc1F (stereo not drawn) | 0.8 (≈ 1.49 µM) |  | 0.006 (≈ 0.0112 µM) |  |  |  | 0.2 (≈ 0.372 µM) |  |  |  |  |  | 0.025 (≈ 0.0465 µM) | 0.013 (≈ 0.0242 µM) | 0.013 (≈ 0.0242 µM) | 0.006 (≈ 0.0112 µM)
5 | CN(Cc1ccc(C#Cc2ccccc2Br)cc1)CC(O)(Cn1cncn1)c1ccc(F)cc1F (stereo not drawn) | 0.4 (≈ 0.744 µM) |  | 0.006 (≈ 0.0112 µM) |  |  |  | 0.03 (≈ 0.0558 µM) |  |  |  |  |  | 0.013 (≈ 0.0242 µM) | 0.013 (≈ 0.0242 µM) | 0.013 (≈ 0.0242 µM) | 0.006 (≈ 0.0112 µM)
6 | CC(=O)c1ccc(C#Cc2ccc(CN(C)[C@H](C)[C@](O)(Cn3cncn3)c3ccc(F)cc3F)cc2)cc1 | 0.01 (≈ 0.0194 µM) | 4 (≈ 7.77 µM) | 0.013 (≈ 0.0253 µM) | 8 (≈ 15.5 µM) | 0.1 (≈ 0.194 µM) | 16 (≈ 31.1 µM) | 0.01 (≈ 0.0194 µM) | 0.25 (≈ 0.486 µM) | 16 (≈ 31.1 µM) | 16 (≈ 31.1 µM) | 16 (≈ 31.1 µM) | 0.5 (≈ 0.972 µM) | 0.013 (≈ 0.0253 µM) | 0.013 (≈ 0.0253 µM) | 0.006 (≈ 0.0117 µM) | 0.006 (≈ 0.0117 µM)
